{
  "source": "patent US20170306388A1",
  "about": "“Method for the Identification of Inhibitors and Activators of Thymidylate Kinases” (Carnegie Mellon University, priority 2016, published 2017)",
  "key": {"[1]": {"tested_on": "CaTMPK", "experiment": "One-dimensional proton NMR activity assay of CaTMPK", "assay_type": "biochemical, Candida albicans", "settings": "substance as phosphate acceptor (1 mM), 1 mM ATP as phosphate donor, pH 7.4", "text": "Three different methods to assay for TMK activity have been reported in the literature. The first method uses isotope labeled [^14C] dTMP as substrate and utilizes the separation of dTMP and dTDP by thin-layer chromatography (TLC). The next method is a coupled enzymatic assay which involves the use of pyruvate kinase and lactate dehydrogenase to couple the production of ADP (a product of TMK activity) to the oxidation of NADH to NAD^+ which can be monitored spectrophotometrically at 340 nm. The third protocol involves the use of luciferin/luciferase to measure the concentration of unreacted ATP, or the amount to ADP in the TMK reaction mixture. All of these assays have inherent problems, ranging from the use of radioactivity to the potential inhibition of the coupling enzymes. Consequently, a simple one step assay to monitor the conversion of TMP to TDP was developed. The assay relies on the difference in the pyrimidine H6 proton chemical shifts of TMP and TDP (see FIG. 4). […] The new assay of the present invention also allows for the near-continuous measurement of product production, while current high-throughput assays are quench-stop type assays.\nOne-dimensional proton (^1H) NMR was used to monitor the activity of CaTMPK. The assay depends on the change in the chemical shift of the H6 proton (dTMP, AZTMP) or the H8 proton (dGMP) of the nucleobases upon the addition of the second phosphate group. The assay reaction included 50 mM Tris-HCl (pH 7.4), 50 mM KCl, 10 mM MgCl2, 1 mM ATP as the phosphate donor, 1 mM phosphate acceptor (dTMP, AZTMP or dGMP) and 10% D20. The reaction was initiated by the addition of CaTMPK to the reaction mix. A series of ^1H NMR spectra were acquired and the area (or height) of the proton line corresponding to the monophosphate forms of the acceptor molecule was plotted against time to calculate the initial rates of catalysis for each of the three substrates."}, "[2]": {"tested_on": "CaTMPK", "experiment": "NADH coupled enzyme activity assay (pyruvate kinase/lactate dehydrogenase) of CaTMPK", "assay_type": "biochemical, Candida albicans", "settings": "substance as phosphate acceptor, NADH decrease at 340 nm, pH 7.4", "method": "The NADH coupled enzyme activity assay (Blondin, C., et al. (1994). Improved spectrophotometric assay of nucleoside monophosphate kinase activity using the pyruvate kinase/lactate dehydrogenase coupling system. Anal. Biochem 220, 219-221) is a well established assay to monitor the enzyme activity of thymidylate kinases. The assay was used to measure the activity of CaTMPK with the different phosphate acceptors (dTMP, AZTMP or dGMP). The reaction mixture consisted of 50 mM Tris-HCl (pH 7.4), 50 mM KCl, 10 mM MgCl2, 0.5 mM phosphoenolpyruvate, 0.15 mM NADH, 5 units/mL each of pyruvate kinase and lactate dehydrogenase. The reaction was initiated by adding the enzyme and the reaction rate was measured by monitoring the decrease of NADH concentration at 340 nm."}},
  "data": [
    {"smiles": "Cc1cn([C@H]2C[C@H](N=[N+]=[N-])[C@@H](COP(=O)(O)O)O2)c(=O)[nH]c1=O", "note": "[AZTMP, azidothymidine monophosphate]", "values": [
      {"measurement": "kcat, nmr assay", "setting": "[1]", "result": 0.533, "unit": "s⁻¹"},
      {"measurement": "kcat, coupled enzyme assay", "setting": "[2]", "result": 0.305, "unit": "s⁻¹"}
    ]},
    {"smiles": "Nc1nc2c(ncn2[C@H]2C[C@H](O)[C@@H](COP(=O)(O)O)O2)c(=O)[nH]1", "note": "[dGMP]", "values": [
      {"measurement": "kcat, nmr assay", "setting": "[1]", "result": 0.00617, "unit": "s⁻¹"},
      {"measurement": "kcat, coupled enzyme assay", "setting": "[2]", "result": 0.0083, "unit": "s⁻¹"}
    ]},
    {"smiles": "Cc1cn([C@H]2C[C@H](O)[C@@H](COP(=O)(O)O)O2)c(=O)[nH]c1=O", "note": "[dTMP, deoxythymidine monophosphate]", "values": [
      {"measurement": "kcat, nmr assay", "setting": "[1]", "result": 8.33, "unit": "s⁻¹"},
      {"measurement": "kcat, coupled enzyme assay", "setting": "[2]", "result": 6.85, "unit": "s⁻¹"}
    ]}
  ]
}
